We go through 16 molecules from patent publication US20250228239A1, “MOLECULES HAVING PESTICIDAL UTILITY, AND INTERMEDIATES, COMPOSITIONS, AND PROCESSES, RELATED THERETO” (priority 2024, published 2025).

What all share (assay type): in vivo
Data set [1] has as its system Yellow Fever Mosquito (Aedes aegypti, AEDSAE). Conditions: for YFM rating: Table ABC / ABC-DP rating. The essentials:
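Compounds from DMSO master plates (4000 ppm stock) diluted in 90:10 water/acetone, then dispensed into six replicate plates and infested with ~1-day-old Aedes aegypti larvae in liver-powder water. Held covered at room temperature for 3 days; each well scored for larval mortality and graded on a rating scale.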

The subject of data set [2] is Cabbage Looper (Trichoplusia ni, TRIPNI). The data set can be described thus: Bioassays on Cabbage Looper (CL), 128-well diet tray assay. Conditions: Trichoplusia ni. The essentials:
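Second-instar larvae (1–5 per well) placed on artificial diet surface-treated with 50 μg/cm^2 test molecule applied in 90:10 acetone-water and dried. Held at 25° C., 14:10 light-dark, for five to seven days. Percent mortality scored per well and averaged over eight wells.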

The test system of data set [3] is Beet Armyworm (Spodoptera exigua, LAPHEG). In words: Bioassays on Beet Armyworm (BAW), 128-well diet tray assay. Conditions: Spodoptera exigua. Summed up:
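Larvae at second instar are exposed on dried, compound-treated diet (50 μg/cm^2, delivered in 90:10 acetone-water) in eight replicate wells. After five to seven days at 25° C., 14:10 light-dark, percent mortality in each well is scored and the eight wells averaged.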

Where [4] appears, read: Cabbage Looper, Table ABC / ABC-DP rating, read-out: CL rating.
Where [5] appears, read: Beet Armyworm, Table ABC / ABC-DP rating, read-out: BAW rating.
Setting [6] is: Yellow Fever Mosquito, rating class.
The mark [7] stands for this setting: Cabbage Looper, rating class, read-out: CL.
The mark [8] stands for this setting: Beet Armyworm, rating class, read-out: BAW.
Where [9] appears, read: Table ABC: Biological Results, species YFM.
Setting [10] is: Table ABC: Biological Results, species CL, read-out: CL.
Where [11] appears, read: Table ABC: Biological Results, species BAW, read-out: BAW.

Where two headings read alike, the source gives them in different places.

As for `O=C(CC1(C(F)(F)F)CC1)Nc1c(F)ccc(NC(=O)c2cc(NC(=O)[C@H]3[C@H](c4ccc(F)c(C(F)(F)F)c4)C3(Cl)Cl)ccc2Cl)c1F` [F1836, 2-Chloro-5-((1R,3R)-2,2-dichloro-3-(4-fluoro-3-(trifluoromethyl)phenyl)cyclopropane-1-carboxamido)-N-(2,4-difluoro-3-(2-(1-(trifluoromethyl)cyclopropyl)acetamido)phenyl)benzamide], in data set [1] (Yellow Fever Mosquito), the YFM rating entry is “A (80–100)”. Besides, the pest or weed control at 50 µg/cm2 in data set [2] (setting [4]) and in data set [3] (setting [5]) was 50 to 100% in each case.
As to `Cc1c(NC(=O)c2cc(NC(=O)[C@H]3[C@H](c4ccc(F)c(C(F)(F)F)c4)C3(Cl)Cl)ccc2Cl)ccc(Br)c1[N+](=O)[O-]` [F1688, N-(4-Bromo-2-methyl-3-nitrophenyl)-2-chloro-5-((1R,3R)-2,2-dichloro-3-(4-fluoro-3-(trifluoromethyl)phenyl)cyclopropane-1-carboxamido)benzamide], the YFM entry in data set [1] (setting [6]) is reported as “A (80–100)”. For the same molecule, the pest or weed control at 50 µg/cm2 in data set [2] (setting [7]) and in data set [3] (setting [8]) was 50 to 100% each time.
One may read the mortality as the percentage killed. On to `CC(=NNC(=O)c1cc(NC(=O)[C@H]2[C@H](c3cc(Cl)cc(Cl)c3)C2(Cl)Cl)ccc1Cl)c1ccccc1` (relative stereo) [F3005, trans-2,2-Dichloro-N-(4-chloro-3-(2-(1-phenylethylidene)hydrazine-1-carbonyl)phenyl)-3-(3,5-dichlorophenyl)cyclopropane-1-carboxamide], for which the YFM rating result in data set [1] (Yellow Fever Mosquito) was “A (80–100)”. Moreover, the “YFM % Control (or Mortality) rating” value in data set [1] (about 1 day-old larvae, 4000 ppm master solution diluted with 90:10 water/acetone, 15 μL per well plus 220 μL larval mixture, 3 days, mortality) was “A (80–100)”. Moreover, the mortality at 50 µg/cm2 in data set [2] (168 h, second instar larvae, 50 μg/cm^2 of test molecule on artificial diet, 25° C., five to seven days, average of eight wells, read-out: CL % Control (or Mortality) rating) lay within 50 to 100%; in data set [3] (168 h, second instar larvae, 50 μg/cm^2 of test molecule on artificial diet, 25° C., five to seven days, average of eight wells, read-out: BAW % Control (or Mortality) rating) it was 50 to 100%. Further, the pest or weed control at 50 µg/cm2 in data set [2] (setting [4]) and in data set [3] (setting [5]) was 50 to 100% in each case.
Regarding `O=C(Nc1ccc(F)c(NC(=O)C(F)(F)C(F)(F)C(F)(F)F)c1F)c1cc(NC(=O)[C@H]2[C@H](c3ccc(F)c(C(F)(F)F)c3)C2(Cl)Cl)ccc1Cl` [F1450, 2-Chloro-5-((1R,3R)-2,2-dichloro-3-(4-fluoro-3-(trifluoromethyl)phenyl)cyclopropane-1-carboxamido)-N-(2,4-difluoro-3-(2,2,3,3,4,4,4-heptafluorobutanamido)phenyl)benzamide], the YFM entry in data set [1] (setting [6]) is “A (80–100)”. For the same molecule, the pest or weed control at 50 µg/cm2 in data set [2] (setting [7]) and in data set [3] (setting [8]) was 50 to 100% in each case.
For `O=C(Nc1ccc(F)cc1)c1cc(NC(=O)[C@H]2[C@H](c3ccc(F)c(Cl)c3)C2(Cl)Cl)cc(C(F)(F)F)c1Cl` (relative stereo) [F1214, trans-2-Chloro-5-(2,2-dichloro-3-(3-chloro-4-fluorophenyl)cyclopropane-1-carboxamido)-N-(4-fluorophenyl)-3-(trifluoromethyl)benzamide], in data set [1] (setting [9]), the YFM result is “A (80–100)”. Also, the pest or weed control at 50 µg/cm2 in data set [2] (setting [10]) and in data set [3] (setting [11]) was 50 to 100% in each case.
Consider `CC(=O)Nc1c(F)ccc(NC(=O)c2cc(NC(=O)[C@H]3[C@H](c4ccc(Cl)c(Cl)c4)C3(Cl)Cl)cc(F)c2F)c1F` [F1442, N-(3-Acetamido-2,4-difluorophenyl)-5-((1R,3R)-2,2-dichloro-3-(3,4-dichlorophenyl)cyclopropane-1-carboxamido)-2,3-difluorobenzamide], for which, in data set [1] (setting [6]), the YFM entry is “A (80–100)”. Further, the pest or weed control at 50 µg/cm2 in data set [2] (setting [7]) and in data set [3] (setting [8]) was 50 to 100% each time.
For `O=C(Nc1ccc(F)c(NC(=O)C(Br)CC(F)(F)F)c1F)c1cc(NC(=O)[C@H]2[C@H](c3ccc(F)c(C(F)(F)F)c3)C2(Cl)Cl)ccc1Cl` (stereo partly drawn) [F1831, N-(3-(2-Bromo-4,4,4-trifluorobutanamido)-2,4-difluorophenyl)-2-chloro-5-((1R,3R)-2,2-dichloro-3-(4-fluoro-3-(trifluoromethyl)phenyl)cyclopropane-1-carboxamido)benzamide], in data set [1] (Yellow Fever Mosquito), the YFM rating result is on record as “A (80–100)”. The pest or weed control at 50 µg/cm2 in data set [2] (setting [4]) and in data set [3] (setting [5]) was 50 to 100% each time.
Consider `O=C(Nc1cc(NC(=O)C(F)(F)F)c(F)cc1F)c1cc(NC(=O)[C@H]2[C@H](c3ccc(F)c(C(F)(F)F)c3)C2(Cl)Cl)ccc1F` [F1557, 5-((1R,3R)-2,2-Dichloro-3-(4-fluoro-3-(trifluoromethyl)phenyl)cyclopropane-1-carboxamido)-N-(2,4-difluoro-5-(2,2,2-trifluoroacetamido)phenyl)-2-fluorobenzamide], for which the YFM result in data set [1] (setting [6]) is recorded as “A (80–100)”. Further, the pest or weed control at 50 µg/cm2 in data set [2] (setting [7]) and in data set [3] (setting [8]) was 50 to 100% throughout.
Take `CCOC(C)C(=O)Nc1c(F)ccc(N(C)C(=O)c2cc(NC(=O)[C@H]3[C@H](c4ccc(F)c(C(F)(F)F)c4)C3(Cl)Cl)ccc2Cl)c1F` (stereo partly drawn) [F1797, 2-Chloro-5-((1R,3R)-2,2-dichloro-3-(4-fluoro-3-(trifluoromethyl)phenyl)cyclopropane-1-carboxamido)-N-(3-(2-ethoxypropanamido)-2,4-difluorophenyl)-N-methylbenzamide]: the YFM rating entry in data set [1] (Yellow Fever Mosquito) was “A (80–100)”. Besides, the pest or weed control at 50 µg/cm2 in data set [2] (setting [4]) and in data set [3] (setting [5]) was 50 to 100% in each case.
In the case of `Nc1c(F)ccc(NC(=O)c2cc(NC(=O)[C@H]3[C@@H](c4cc(Cl)c(F)c(Cl)c4)C3(Cl)Cl)ccc2Cl)c1F` (relative stereo) [F1182, cis-N-(3-Amino-2,4-difluorophenyl)-2-chloro-5-(2,2-dichloro-3-(3,5-dichloro-4-fluorophenyl)cyclopropane-1-carboxamido)benzamide], the YFM result in data set [1] (setting [9]) is “A (80–100)”. The pest or weed control at 50 µg/cm2 in data set [2] (setting [10]) and in data set [3] (setting [11]) was 50 to 100% each time.
For `Nc1c(F)ccc(NC(=O)c2cc(NC(=O)[C@H]3[C@@H](c4cc(F)c(F)c(Br)c4)C3(Cl)Cl)ccc2Cl)c1F` (relative stereo) [F1045, cis-N-(3-Amino-2,4-difluorophenyl)-5-(3-(3-bromo-4,5-difluorophenyl)-2,2-dichlorocyclopropane-1-carboxamido)-2-chlorobenzamide], in data set [1] (setting [9]), the YFM entry is reported as “A (80–100)”. Moreover, the pest or weed control at 50 µg/cm2 in data set [2] (setting [10]) and in data set [3] (setting [11]) was 50 to 100% in each case.
Consider `CC(OCC(F)(F)F)C(=O)Nc1c(F)ccc(NC(=O)c2cc(NC(=O)[C@H]3[C@H](c4ccc(F)c(C(F)(F)F)c4)C3(Cl)Cl)ccc2Cl)c1F` (stereo partly drawn) [F1747, 2-Chloro-5-((1R,3R)-2,2-dichloro-3-(4-fluoro-3-(trifluoromethyl)phenyl)cyclopropane-1-carboxamido)-N-(2,4-difluoro-3-(2-(2,2,2-trifluoroethoxy)propanamido)phenyl)benzamide], for which the YFM result in data set [1] (setting [6]) is listed as “A (80–100)”. In addition, the pest or weed control at 50 µg/cm2 in data set [2] (setting [7]) and in data set [3] (setting [8]) was 50 to 100% each time.
Consider `Nc1c(F)ccc(NC(=O)c2cc(NC(=O)[C@H]3[C@H](c4ccc(F)c(Cl)c4F)C3(Cl)Cl)ccc2Cl)c1F` (relative stereo) [F1049, trans-N-(3-Amino-2,4-difluorophenyl)-2-chloro-5-(2,2-dichloro-3-(3-chloro-2,4-difluorophenyl)cyclopropane-1-carboxamido)benzamide], for which the YFM entry in data set [1] (setting [9]) is on record as “A (80–100)”. Moreover, the pest or weed control at 50 µg/cm2 in data set [2] (setting [10]) and in data set [3] (setting [11]) was 50 to 100% each time.
For `CC(=O)OCN(C(=O)c1cc(NC(=O)[C@H]2[C@H](c3cc(Cl)cc(Cl)c3)C2(Cl)Cl)ccc1Cl)c1ccc(F)cc1C#N` (relative stereo) [F1084, trans-(2-Chloro-N-(2-cyano-4-fluorophenyl)-5-(2,2-dichloro-3-(3,5-dichlorophenyl)cyclopropane-1-carboxamido)benzamido)methyl acetate], the YFM entry in data set [1] (setting [9]) is recorded as “A (80–100)”. The pest or weed control at 50 µg/cm2 in data set [2] (setting [10]) and in data set [3] (setting [11]) was 50 to 100% in each case.
Consider `CO[C@@H](C)C(=O)Nc1c(F)ccc(NC(=O)c2cc(NC(=O)[C@H]3[C@H](c4ccc(F)c(C(F)(F)F)c4)C3(Cl)Cl)ccc2Cl)c1F` [F1720, 2-Chloro-5-((1R,3R)-2,2-dichloro-3-(4-fluoro-3-(trifluoromethyl)phenyl)cyclopropane-1-carboxamido)-N-(2,4-difluoro-3-((S)-2-methoxypropanamido)phenyl)benzamide], for which the YFM result in data set [1] (setting [6]) is reported as “A (80–100)”. For the same molecule, the pest or weed control at 50 µg/cm2 in data set [2] (setting [7]) and in data set [3] (setting [8]) was 50 to 100% in each case.
In the case of `Nc1c(F)ccc(NC(=O)c2cc(NC(=O)[C@H]3[C@H](c4ccc(F)cc4)C3(Cl)Cl)ccc2Cl)c1F` (relative stereo) [F1592, trans-N-(3-Amino-2,4-difluorophenyl)-2-chloro-5-(2,2-dichloro-3-(4-fluorophenyl)cyclopropane-1-carboxamido)benzamide], the YFM result in data set [1] (setting [6]) is reported as “A (80–100)”. Moreover, the pest or weed control at 50 µg/cm2 in data set [2] (setting [7]) and in data set [3] (setting [8]) was 50 to 100% throughout.
